Data taken from ChEMBL document CHEMBL3393000, “Synthesis and anticancer activity of some 8-substituted-7-methoxy-2H-chromen-2-one derivatives toward hepatocellular carcinoma HepG2 cells” (Eur J Med Chem, 2015).
Values belong to the compound of their own block, whether it stands above or below them.

Experiments:
HepG2 [1] = assay: Cytotoxicity against human HepG2 cells assessed as reduction in cell viability after 72 hrs by MTT assay; format: functional, cell-based; conditions: HepG2, 72 h
[2] = target: Telomerase reverse transcriptase (Homo sapiens) (UniProt O14746); assay: Inhibition of telomerase in human HepG2 cells at 4 uM after 2 days by TRAP-ELISA method; format: cell-based
[3] = target: Telomerase reverse transcriptase (Homo sapiens) (UniProt O14746); assay: Inhibition of telomerase in human HepG2 cells at 2 uM after 1 day by TRAP-ELISA method; format: cell-based
[4] = target: Telomerase reverse transcriptase (Homo sapiens) (UniProt O14746); assay: Inhibition of telomerase in human HepG2 cells at 1 uM after 1 day by TRAP-ELISA method; format: cell-based
[5] = target: Telomerase reverse transcriptase (Homo sapiens) (UniProt O14746); assay: Inhibition of telomerase in human HepG2 cells at 2 uM after 2 days by TRAP-ELISA method; format: cell-based
[6] = target: Telomerase reverse transcriptase (Homo sapiens) (UniProt O14746); assay: Inhibition of telomerase in human HepG2 cells at 4 uM after 3 days by TRAP-ELISA method; format: cell-based
[7] = target: Telomerase reverse transcriptase (Homo sapiens) (UniProt O14746); assay: Inhibition of telomerase in human HepG2 cells at 2 uM after 3 days by TRAP-ELISA method; format: cell-based
[8] = target: Telomerase reverse transcriptase (Homo sapiens) (UniProt O14746); assay: Inhibition of telomerase in human HepG2 cells at 1 uM after 2 days by TRAP-ELISA method; format: cell-based
[9] = target: Telomerase reverse transcriptase (Homo sapiens) (UniProt O14746); assay: Inhibition of telomerase in human HepG2 cells at 4 uM after 1 day by TRAP-ELISA method; format: cell-based
[10] = target: Telomerase reverse transcriptase (Homo sapiens) (UniProt O14746); assay: Inhibition of telomerase in human HepG2 cells at 1 uM after 3 days by TRAP-ELISA method; format: cell-based
[11] = target: Telomerase reverse transcriptase (Homo sapiens) (UniProt O14746); assay: Inhibition of telomerase in human HepG2 cells at 1 to 4 uM after 1 to 3 days by TRAP-ELISA method; format: cell-based
HepG2 [12] = assay: Induction of apoptosis in human HepG2 cells at 0.01 umol/ml after 24 hrs by annexin V-FITC/propidium iodide staining based flow cytometry (reference value: 0.54%); format: functional
HepG2 [13] = assay: Induction of apoptosis in human HepG2 cells at 0.04 umol/ml after 24 hrs by annexin V-FITC/propidium iodide staining based flow cytometry (reference value: 0.54%); format: functional
HepG2 [14] = assay: Induction of apoptosis in human HepG2 cells at 0.08 umol/ml after 24 hrs by annexin V-FITC/propidium iodide staining based flow cytometry (reference value: 0.54%); format: functional
HepG2 [15] = assay: Induction of apoptosis in human HepG2 cells at 0.01 to 0.08 umol/ml after 24 hrs by annexin V-FITC/propidium iodide staining based flow cytometry; format: functional, cell-based
HepG2 [16] = assay: Induction of apoptosis in human HepG2 cells at 0.02 umol/ml after 24 hrs by annexin V-FITC/propidium iodide staining based flow cytometry (reference value: 0.54%); format: functional

Telomerase reverse transcriptase (Homo sapiens), sequence (O14746 whole entry): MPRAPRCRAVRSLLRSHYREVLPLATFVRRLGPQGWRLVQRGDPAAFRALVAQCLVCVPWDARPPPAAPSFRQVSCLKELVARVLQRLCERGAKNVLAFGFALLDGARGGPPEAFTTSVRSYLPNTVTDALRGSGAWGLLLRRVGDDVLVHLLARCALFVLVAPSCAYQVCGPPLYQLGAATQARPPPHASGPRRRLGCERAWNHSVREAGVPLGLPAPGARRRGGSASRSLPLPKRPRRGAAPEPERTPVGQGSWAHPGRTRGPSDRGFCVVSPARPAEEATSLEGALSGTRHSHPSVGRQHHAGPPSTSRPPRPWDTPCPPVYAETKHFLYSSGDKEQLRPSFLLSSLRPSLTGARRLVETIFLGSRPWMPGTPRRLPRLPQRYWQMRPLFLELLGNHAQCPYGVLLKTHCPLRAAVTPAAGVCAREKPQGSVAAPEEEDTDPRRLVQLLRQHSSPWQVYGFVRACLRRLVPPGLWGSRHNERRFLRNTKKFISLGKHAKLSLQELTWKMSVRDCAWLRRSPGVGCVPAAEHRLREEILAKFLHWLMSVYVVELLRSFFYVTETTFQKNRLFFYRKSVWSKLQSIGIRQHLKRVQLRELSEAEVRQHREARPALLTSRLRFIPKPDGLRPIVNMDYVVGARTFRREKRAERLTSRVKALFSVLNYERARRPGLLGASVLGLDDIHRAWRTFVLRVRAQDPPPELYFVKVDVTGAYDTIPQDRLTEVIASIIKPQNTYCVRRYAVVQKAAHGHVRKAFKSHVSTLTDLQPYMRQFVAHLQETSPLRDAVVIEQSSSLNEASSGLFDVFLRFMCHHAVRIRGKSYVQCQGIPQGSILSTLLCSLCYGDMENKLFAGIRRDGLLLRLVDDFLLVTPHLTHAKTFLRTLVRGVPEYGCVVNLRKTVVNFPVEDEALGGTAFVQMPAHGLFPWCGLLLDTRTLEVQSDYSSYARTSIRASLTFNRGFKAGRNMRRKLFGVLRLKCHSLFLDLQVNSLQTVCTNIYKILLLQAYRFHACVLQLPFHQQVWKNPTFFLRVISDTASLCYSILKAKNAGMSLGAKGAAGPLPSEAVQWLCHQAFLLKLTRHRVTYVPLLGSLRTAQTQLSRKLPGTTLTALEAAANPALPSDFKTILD

SMILES: COc1ccc2ccc(=O)oc2c1C1=NN(c2ccccc2)C(c2ccccc2)C1 (configuration not stated)
IC50 (HepG2 [1]): 73 nM

SMILES: COc1ccc2ccc(=O)oc2c1C(/C=C/c1ccc(SC)cc1)=N/NC(N)=O
IC50 (HepG2 [1]): 99 nM

SMILES: COc1ccc2ccc(=O)oc2c1C1=NNC(c2ccccc2)C1 (configuration not stated)
IC50 (HepG2 [1]): 48 nM

SMILES: COc1ccc2ccc(=O)oc2c1C1=NNC(c2ccc(C)cc2)C1 (configuration not stated)
IC50 (HepG2 [1]): 43 nM

SMILES: COc1ccc2ccc(=O)oc2c1C1=NN(C(C)=O)C(c2cccs2)C1 (configuration not stated)
IC50 (HepG2 [1]): 75 nM

SMILES: COc1ccc2ccc(=O)oc2c1C1=NN(C(C)=O)C(c2ccccc2)C1 (configuration not stated)
IC50 (HepG2 [1]): 52 nM

SMILES: COc1ccc2ccc(=O)oc2c1C1=NN(C(N)=O)C(c2ccccc2)C1 (configuration not stated)
IC50 (HepG2 [1]): 90 nM

SMILES: COc1ccc2ccc(=O)oc2c1C(/C=C/c1ccc(C)cc1)=N/NC(N)=O
IC50 (HepG2 [1]): 93 nM

SMILES: COc1ccc2ccc(=O)oc2c1C1=NN(c2ccccc2)C(c2ccc(C)cc2)C1 (configuration not stated)
IC50 (HepG2 [1]): 51 nM

SMILES: CN[C@@H]1C[C@H]2O[C@@](C)([C@@H]1OC)n1c3ccccc3c3c4c(c5c6ccccc6n2c5c31)C(=O)NC4
inhibition [2]: 40.1%
inhibition [3]: 12.7%
inhibition [4]: 10.7%
inhibition [5]: 18.9%
inhibition [6]: 56.5%
inhibition [7]: 28.7%
inhibition [8]: 11.3%
inhibition [9]: 30.1%
inhibition [10]: 15.4%
inhibition [11]: Dose-dependent effect

SMILES: COc1ccc2ccc(=O)oc2c1C1=NN(C(C)=O)C(c2ccc(C(F)(F)F)cc2)C1 (configuration not stated)
IC50 (HepG2 [1]): 80 nM

SMILES: COc1ccc2ccc(=O)oc2c1C1=NN(c2ccccc2)C(c2ccc(C(F)(F)F)cc2)C1 (configuration not stated)
IC50 (HepG2 [1]): 38 nM

SMILES: COc1ccc2ccc(=O)oc2c1C1=NN(C(N)=O)C(c2cccs2)C1 (configuration not stated)
IC50 (HepG2 [1]): 26 nM

SMILES: COc1ccc2ccc(=O)oc2c1C1=NN(C(C)=O)C(c2ccc(SC)cc2)C1 (configuration not stated)
IC50 (HepG2 [1]): 42 nM

inhibition [2]: 65.2%
inhibition [3]: 23.2%
inhibition [4]: 19.4%
inhibition [5]: 34.5%
inhibition [6]: 78.6%
inhibition [7]: 46.4%
inhibition [8]: 22.4%
inhibition [9]: 32.3%
inhibition [10]: 30.1%
inhibition [11]: Dose-dependent effect
SMILES: COc1ccc2ccc(=O)oc2c1C1=NNC(c2ccc(SC)cc2)C1 (configuration not stated)
IC50 (HepG2 [1]): 10 nM
Activity (HepG2 [12]): 25.45%
Activity (HepG2 [13]): 40.96%
Activity (HepG2 [14]): 46.85%
Activity (HepG2 [15]): Dose-dependent effect
Activity (HepG2 [16]): 35%

SMILES: COc1ccc2ccc(=O)oc2c1C1=NN(C(N)=O)C(c2ccc(C)cc2)C1 (configuration not stated)
IC50 (HepG2 [1]): 46 nM

inhibition [2]: 62.6%
inhibition [3]: 22.3%
inhibition [4]: 18.6%
inhibition [5]: 33.1%
inhibition [6]: 75.5%
inhibition [7]: 44.6%
inhibition [8]: 21.5%
inhibition [9]: 31%
inhibition [10]: 28.9%
inhibition [11]: Dose-dependent effect
SMILES: COc1ccc2ccc(=O)oc2c1C1=NNC(c2cccs2)C1 (configuration not stated)
IC50 (HepG2 [1]): 11 nM

SMILES: COc1ccc2ccc(=O)oc2c1CC=C(C)C [OSTHOLE]
IC50 (HepG2 [1]): 161000 nM

SMILES: COc1ccc2ccc(=O)oc2c1C(/C=C/c1ccccc1)=N/NC(N)=O
IC50 (HepG2 [1]): 82 nM

SMILES: COc1ccc2ccc(=O)oc2c1C1=NN(C(C)=O)C(c2ccc(C)cc2)C1 (configuration not stated)
IC50 (HepG2 [1]): 50 nM

inhibition [2]: 56.6%
inhibition [3]: 20.1%
inhibition [4]: 16.8%
inhibition [5]: 30%
inhibition [6]: 68.3%
inhibition [7]: 40.3%
inhibition [8]: 19.4%
inhibition [9]: 28%
inhibition [10]: 26.1%
inhibition [11]: Dose-dependent effect
SMILES: COc1ccc2ccc(=O)oc2c1C1=NN(c2ccccc2)C(c2cccs2)C1 (configuration not stated)
IC50 (HepG2 [1]): 15 nM

inhibition [2]: 59%
inhibition [3]: 21%
inhibition [4]: 17.5%
inhibition [5]: 31.2%
inhibition [6]: 71.1%
inhibition [7]: 42%
inhibition [8]: 20.2%
inhibition [9]: 29.2%
inhibition [10]: 27.2%
inhibition [11]: Dose-dependent effect
SMILES: COc1ccc2ccc(=O)oc2c1C1=NNC(c2ccc(C(F)(F)F)cc2)C1 (configuration not stated)
IC50 (HepG2 [1]): 13 nM

SMILES: COc1ccc2ccc(=O)oc2c1C(/C=C/c1ccc(C(F)(F)F)cc1)=N/NC(N)=O
IC50 (HepG2 [1]): 96 nM

inhibition [2]: 51.2%
inhibition [3]: 18.2%
inhibition [4]: 15.2%
inhibition [5]: 27.1%
inhibition [6]: 61.7%
inhibition [7]: 36.5%
inhibition [8]: 17.6%
inhibition [9]: 25.3%
inhibition [10]: 23.6%
inhibition [11]: Dose-dependent effect
SMILES: COc1ccc2ccc(=O)oc2c1C1=NN(C(N)=O)C(c2ccc(SC)cc2)C1 (configuration not stated)
IC50 (HepG2 [1]): 18 nM

SMILES: COc1ccc2ccc(=O)oc2c1C(/C=C/c1cccs1)=N/NC(N)=O
IC50 (HepG2 [1]): 75 nM

SMILES: COc1ccc2ccc(=O)oc2c1C1=NN(c2ccccc2)C(c2ccc(SC)cc2)C1 (configuration not stated)
IC50 (HepG2 [1]): 78 nM

SMILES: COc1ccc2ccc(=O)oc2c1C1=NN(C(N)=O)C(c2ccc(C(F)(F)F)cc2)C1 (configuration not stated)
IC50 (HepG2 [1]): 96 nM

SMILES: COc1cccc2c1C(=O)c1c(O)c3c(c(O)c1C2=O)C[C@@](O)(C(=O)CO)C[C@@H]3O[C@H]1C[C@H](N)[C@H](O)[C@H](C)O1 [DOXORUBICIN]
IC50 (HepG2 [1]): 630 nM
